Experimental data published in US12029748B2, “Synergistic composition for maintenance of healthy balance of microflora” (KIMBERLY-CLARK WORLDWIDE, INC., priority 2017, dated 2024).

Legend:
L. crispatus and E. coli = assay: Therapeutic Effect Protocol: L. crispatus / E. coli co-culture, ratio after 36 hours; type: cell-based, Lactobacillus crispatus; E. coli; settings: for Therapeutic Efficacy Results (Lactobacillus/E. coli) 0.10%: nitrogen compound 0.10 wt/vol % with 1.0 wt/vol % α methyl-D glucoside (10:1); for Therapeutic Efficacy Results (Lactobacillus/E. coli) 0.10% / Therapeutic Efficacy Results (Lactobacillus/E. coli) 0.50%: 36 hours anaerobic co-culture, 37° C.; for Therapeutic Efficacy Results (Lactobacillus/E. coli) 0.50%: nitrogen compound 0.50 wt/vol % with 1.0 wt/vol % α methyl-D glucoside (2:1); for Therapeutic effect when ratio α methyl-D glucoside : nitrogen compound is at least about 2:1, but not at 1:1: with α methyl-D glucoside, ratio at least about 2:1, not 1:1
Outline: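 L. crispatus and E. coli were mixed 1,000:1 (10^5-10^6 and 100-1,000 CFU per 5 mL tube) in LAPT-g medium at pH 6.5, containing 1% α-methyl-D-glucoside plus nitrogen compound at 0.1-1% w/v, in duplicate. After 36 h anaerobic incubation at 37 °C, each species was counted by selective plating (MRS anaerobic, TSA aerobic), and the L. crispatus:E. coli ratio and final pH were recorded.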

[1] = Solubility screening of the composition (visual precipitates or turbidity); type: physicochemical; settings: for Solubility of the composition, 0.50%: nitrogen compound 0.50 wt/vol % with 1.0 wt/vol % α methyl-D glucoside in medium; for Solubility of the composition, 1.00%: nitrogen compound 1.00 wt/vol % with 1.0 wt/vol % α methyl-D glucoside in medium
Excerpt: Each composition in Table 1 went through initial screening measures of solubility and initial pH (“I pH”). […] When a specific concentration of a nitrogen containing compound was insoluble, the initial and final pH (“F pH”) of the combined composition was not measured and accordingly are each marked as “NM.” Additionally, initial pH of the composition was checked as a screening measure. The initial pH was marked as either Low (“L”), High (“H”), or Pass (“P”). A Low initial pH corresponds to an initial pH being less than 5.5, a High initial pH corresponds to an initial pH being greater than 6.5, and a Pass initial pH corresponds to the pH being at or between 5.5-6.5. […] As part of the Therapeutic Effect Protocol, a final pH was also measured after the compositions that were tested against the Lactobacillus and E. coli.
All of the ingredients in Table 2 were combined and the pH was adjusted to 6.5. […] To evaluate the effect of various nitrogen containing therapeutic agents on the growth of bacteria, the LAPT-g media, prepared as described above, was supplemented with various nitrogen containing compound therapeutic agents to a final test concentration between 0.1 and 1.0%. As initial screening measures, solubility and initial pH of each composition were checked. If a specific composition was insoluble (as detected by visual indication of precipitates or turbidity), then no further therapeutic efficacy testing was undertaken on that composition. Additionally, if the initial pH of the composition was below 5.5 (“Low”) or was above 6.5 (“High”), then no further therapeutic efficacy testing was undertaken on that composition.

[2] = Initial pH screening of the composition; type: physicochemical; settings: for I pH (initial pH), 0.10%: nitrogen compound 0.10 wt/vol % with 1.0 wt/vol % α methyl-D glucoside in medium; for I pH (initial pH), 0.50%: nitrogen compound 0.50 wt/vol % with 1.0 wt/vol % α methyl-D glucoside in medium
Outline: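 Compounds were added to LAPT-g medium (pH adjusted to 6.5) at a final 0.1-1.0%. Solubility was judged visually by precipitate or turbidity, and insoluble compositions got no pH measurement. Initial pH was scored Low (<5.5), High (>6.5) or Pass (5.5-6.5), and only soluble Pass compositions went on to efficacy testing.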

SMILES: N[C@@H](Cc1ccccc1)C(=O)O [L-Phenylalanine]
- Therapeutic Efficacy Results (Lactobacillus/E. coli) 0.10% (L. crispatus and E. coli): 0.09
- Solubility of the composition, 0.50% [1]: Insol.
- Solubility of the composition, 1.00% [1]: Insol.
- I pH (initial pH), 0.10% [2]: P (a Pass initial pH corresponds to the pH being at or between 5.5-6.5)

SMILES: Nc1ncnc2nc[nH]c12 [Adenine]
- Solubility of the composition, 0.10% ([1]; nitrogen compound 0.10 wt/vol % with 1.0 wt/vol % α methyl-D glucoside in medium): Insol.
- Solubility of the composition, 0.50% [1]: Insol.
- Solubility of the composition, 1.00% [1]: Insol.

SMILES: N[C@@H](Cc1c[nH]cn1)C(=O)O [L-Histidine]
- Therapeutic Efficacy Results (Lactobacillus/E. coli) 0.10% (L. crispatus and E. coli): 1.11
- Solubility of the composition, 0.50% [1]: Insol.
- Solubility of the composition, 1.00% [1]: Insol.
- I pH (initial pH), 0.10% [2]: P (a Pass initial pH corresponds to the pH being at or between 5.5-6.5)

SMILES: CC(C)C[C@H](N)C(=O)O [L-Leucine]
- Therapeutic Efficacy Results (Lactobacillus/E. coli) 0.10% (L. crispatus and E. coli): 2.9
- Therapeutic Efficacy Results (Lactobacillus/E. coli) 0.50% (L. crispatus and E. coli): 0.24
- Therapeutic effect when ratio α methyl-D glucoside : nitrogen compound is at least about 2:1, but not at 1:1 (L. crispatus and E. coli): provided a therapeutic effect
- Solubility of the composition, 1.00% [1]: Insol.
- I pH (initial pH), 0.10% [2]: P (a Pass initial pH corresponds to the pH being at or between 5.5-6.5)
- I pH (initial pH), 0.50% [2]: P (a Pass initial pH corresponds to the pH being at or between 5.5-6.5)

SMILES: Nc1ncnc2c1ncn2[C@@H]1O[C@H](CO)[C@@H](O)[C@H]1O [Adenosine]
- Therapeutic Efficacy Results (Lactobacillus/E. coli) 0.10% (L. crispatus and E. coli): <100
- Therapeutic Efficacy Results (Lactobacillus/E. coli) 0.50% (L. crispatus and E. coli): 0.97
- Therapeutic effect when ratio α methyl-D glucoside : nitrogen compound is at least about 2:1, but not at 1:1 (L. crispatus and E. coli): provided a therapeutic effect
- Solubility of the composition, 1.00% [1]: Insol.
- I pH (initial pH), 0.10% [2]: P (a Pass initial pH corresponds to the pH being at or between 5.5-6.5)
- I pH (initial pH), 0.50% [2]: P (a Pass initial pH corresponds to the pH being at or between 5.5-6.5)

SMILES: O=c1cc[nH]c(=O)[nH]1 [Uracil]
- Therapeutic Efficacy Results (Lactobacillus/E. coli) 0.10% (L. crispatus and E. coli): 0.43
- Solubility of the composition, 0.50% [1]: Insol.
- Solubility of the composition, 1.00% [1]: Insol.
- I pH (initial pH), 0.10% [2]: P (a Pass initial pH corresponds to the pH being at or between 5.5-6.5)

SMILES: N[C@@H](Cc1c[nH]c2ccccc12)C(=O)O [L-Tryptophan]
- Therapeutic Efficacy Results (Lactobacillus/E. coli) 0.10% (L. crispatus and E. coli): 0.66
- Therapeutic Efficacy Results (Lactobacillus/E. coli) 0.50% (L. crispatus and E. coli): 0.06
- Solubility of the composition, 1.00% [1]: Insol.
- I pH (initial pH), 0.10% [2]: P (a Pass initial pH corresponds to the pH being at or between 5.5-6.5)
- I pH (initial pH), 0.50% [2]: P (a Pass initial pH corresponds to the pH being at or between 5.5-6.5)

SMILES: NC(=O)NC1NC(=O)NC1=O (stereo not shown) [Allantoin]
- Therapeutic Efficacy Results (Lactobacillus/E. coli) 0.10% (L. crispatus and E. coli): 0.9
- Therapeutic Efficacy Results (Lactobacillus/E. coli) 0.50% (L. crispatus and E. coli): 1.37
- Solubility of the composition, 1.00% [1]: Insol.
- I pH (initial pH), 0.10% [2]: P (a Pass initial pH corresponds to the pH being at or between 5.5-6.5)
- I pH (initial pH), 0.50% [2]: P (a Pass initial pH corresponds to the pH being at or between 5.5-6.5)

SMILES: NC(=O)C[C@H](N)C(=O)O [L-Asparagine]
- Therapeutic Efficacy Results (Lactobacillus/E. coli) 0.10% (L. crispatus and E. coli): 1.12
- Therapeutic Efficacy Results (Lactobacillus/E. coli) 0.50% (L. crispatus and E. coli): 1.72
- Solubility of the composition, 1.00% [1]: Insol.
- I pH (initial pH), 0.10% [2]: P (a Pass initial pH corresponds to the pH being at or between 5.5-6.5)
- I pH (initial pH), 0.50% [2]: P (a Pass initial pH corresponds to the pH being at or between 5.5-6.5)

SMILES: CC[C@H](C)[C@H](N)C(=O)O [L-Isoleucine]
- Therapeutic Efficacy Results (Lactobacillus/E. coli) 0.10% (L. crispatus and E. coli): 1.51
- Solubility of the composition, 0.50% [1]: Insol.
- Solubility of the composition, 1.00% [1]: Insol.
- I pH (initial pH), 0.10% [2]: P (a Pass initial pH corresponds to the pH being at or between 5.5-6.5)
